Results taken from patent US20250170088A1, “METHOD AND COMPOSITION FOR IMPROVING INTESTINAL MICROFLORA” (NANJING NUTRABUILDING BIO-TECH CO., LTD., priority 2022, published 2025).

How the values were obtained:
Type in all cases: in vivo
Conditions in all cases: obese mice induced by high-fat diet, 200 mg tributyrin daily, 8 weeks
Klebsiella = assay: 16s rRNA sequencing of fecal samples, relative abundance change of Klebsiella
Akkermansia muciniphila = assay: 16s rRNA sequencing of fecal samples, relative abundance change of Akkermansia muciniphila
Megamonas = assay: 16s rRNA sequencing of fecal samples, relative abundance change of Megamonas
Streptococcus gordonii = assay: 16s rRNA sequencing of fecal samples, level of Streptococcus gordonii
Lactobacillus = assay: 16s rRNA sequencing of fecal samples, relative abundance change of Lactobacillus

SMILES: CCCC(=O)OCC(COC(=O)CCC)OC(=O)CCC [tributyrin, Tributyrin]
- decrease of the level of Klebsiella (Klebsiella): 67%
- increase of the level of Akkermansia muciniphila (Akkermansia muciniphila): 119%
- decrease of the level of Megamonas (Megamonas): 91%
- decrease of the level of Streptococcus gordonii (Streptococcus gordonii): about 80%
- increase of the level of Lactobacillus (Lactobacillus): 101%
